Patent US20190248834A1, “ENDOMORPHIN-2, TETRAPEPTIDE DERIVATIVES THEREOF, AND USES THEREOF” (priority 2016, published 2019)
Primed or numbered codes have the meaning given here. *: point of attachment. Bz′ = not defined here; NHNHAc = CC(=O)NN*; NHPr = CCCN*; For = O=C*; NHOH = ON*

Key:
Format in all cases: in vivo, human
[1] = tested on: headache; experiment: Example 52: analgesic effect on headache; settings: two 500 mg tablets, oral
Source text: At 5:30 p.m., the headache pain was becoming more intense, at which time they topically applied a composition containing 1% (w/v) of N-Pg-Tyr-Pro-Phe-Phe-NH2 (SEQ ID NO: 44) in WEP442 to the entire forehead and temporal areas. […] There was no recurrence of symptoms over the next 3 days of follow-up time.

[2] = tested on: psoriatic arthritis, fingers and wrists; experiment: Example 95: comparative analgesic efficacy on pain of psoriatic arthritis, topical; settings: for pain relief: 1% (w/v) in WEP442, topical to fingers and wrists
Source text: […] Treatment of the subject over the years included methotrexate and other antimetabolites, and in recent years, drugs known as biologic medications. While these agents provided intervals of relief, none provided lasting benefit. Over the past decade, painful arthritis developed in both hands and knees, and in numerous joints of the fingers. Three related tetrapeptide derivatives, 1% (w/v) in vehicle WEP442, were topically applied to the fingers and wrists of both hands one at a time. […] Analgesic efficacy was rated by the subject as 75%.

[3] = tested on: periostitis of right upper tibia, osteoarthritis of left knee, left hip joint pain, lower back pain; experiment: Example 87: pain relief at multiple sites in one subject, topical; settings: for degree of analgesic effect / duration of pain relief / pain relief at the treated sites / time to pain relief: 0.8% (w/v) in WEP442, topical to the sites of pain; for duration of pain relief, right upper tibia: 0.8% (w/v) in WEP442, periostitis of right upper tibia
Source text: A caregiver subject, presented with (a) painful periostitis of the right upper tibia for about 3 months, (b) painful early osteoarthritis of the left knee for about 1 year, (c) painful left hip joint of about 6 months, and (d) lower back pain near the end of the work day for about 2 years.
Over the course of 16 days, this subject evaluated the analgesic efficacy of eight (8) endomorphin-2 tetrapeptide derivatives in WEP442 at a concentration of 0.8% (w/v) applied topically to the sites of pain.
The lower back pain returned toward the end of the following work day.
Relief of lower back pain lasted for 20-24 hours (4+ effect). […]
For the above same subject, the composition containing 0.8% (w/v) of N-Ac-Tyr-Pro-Phe-Phe-NHCH(CH3)2 (SEQ ID NO: 27) in WEP442 was topically applied to the right upper tibia, left knee and left hip.
For the above same subject, the composition containing 0.8% (w/v) of N-Fo-Tyr-Pro-Phe-Phe-NH2 (SEQ ID NO: 104) in WEP442 was topically applied to 3 sites. Relief of pain was variable. […] Relief of pain in the right upper tibia was complete in about 4 minutes, lasting for 12 hours.
For the above same subject, the composition containing 0.8% (w/v) of N-Bz-Tyr-Pro-Phe-Phe-NH2 (SEQ ID NO: 84) in WEP442 provided relief of pain within 2-4 minutes. On the left hip, the relief was complete, lasting for about 12 hours (4+ effect). On the left knee, relief was incomplete, about 50%, lasting for only about 3 hours (2+ effect). On the right upper tibia, relief was complete and lasted for about 12 hours (4+ effect).

[4] = tested on: severe osteoarthritis of both knees; experiment: Example 88: analgesic efficacy of eight derivatives on severe osteoarthritis, topical; settings: 1% (w/v) in WEP442, topical to the knees
Method: A subject with severe osteoarthritis of both knees for a duration of about 7 years evaluated numerous tetrapeptide derivatives over the past years. […] Over the course of 3 weeks, this subject evaluated the analgesic efficacy of eight (8) endomorphin-2 tetrapeptide derivatives in WEP442 at a concentration of 1% (w/v) applied topically to the knees.
Reapplication at the end of that time again provided the same effect. Application at bedtime provided relief of pain for 7 hours. The same results were achieved the next day (3+ to 4+ effect).
A second application, about 15 minutes later, provided somewhat more relief (2+ effect).
Application at 9:30 p.m. provided relief until 5:30 a.m., and similar results were achieved the next day (3+ to 4+ effect).
No modification of pain in the right knee, which had received application of vehicle WEP442 as a control, was detected. Application of the composition containing the tetrapeptide derivative to the right knee about 15 minutes later provided prompt relief of pain. Pain relief in both knees lasted for about 5 hours (3+ to 4+ effect).
Relief lasted for about 3 hours. Re-application at that time provided the same degree of pain relief in about 5 minutes, which lasted about another 3 hours (2+ effect).
For the above same subject, the composition containing 1% (w/v) of N-Fo-Tyr-Pro-Phe-Phe-NH2 (SEQ ID NO: 104) in WEP442 was applied to the left knee, and the composition containing 1% (w/v) of N-Bz-Tyr-Pro-Phe-Phe-NH2 (SEQ ID NO: 84) in WEP442 was applied to the right knee moments later. Relief of pain in both knees seemed equivalent, was detectable in 5-7 minutes and lasted for about 4 hours. This procedure was repeated the next day with about the same results. The degree of pain relief from both solutions was rated as 3+ effect.

[5] = tested on: psoriatic arthritis of interphalangeal joints of the fingers; experiment: Example 93: multiple derivatives evaluated for relief of pain associated with psoriatic arthritis, topical; settings: 0.8% (w/v) in WEP442, topical to both hands
Source text: A subject with extensive plaque psoriasis and psoriatic arthritis of interphalangeal joints of the fingers evaluated multiple tetrapeptide derivatives for comparative effectiveness on relief of their painful fingers. Over the course of 4 weeks, this subject evaluated the analgesic efficacy of ten (10) endomorphin-2 tetrapeptide derivatives in WEP442 at a concentration of 0.8% (w/v) applied topically to both hands, which included all fingers.

[6] = tested on: psoriatic arthritis pain, fingers and wrists; experiment: Example 48: comparative analgesic efficacy, psoriatic arthritis pain of fingers and wrists, topical; settings: 1% (w/v) in WEP442, topical
Source text: […] Treatment of the subject over the years included methotrexate and other antimetabolites, and in recent years drugs known as biologic medications. While these agents have provided intervals of relief, none has provided a lasting benefit. Over the past decade, painful arthritis developed in both wrists and in numerous joints of the fingers. Four related tetrapeptide derivatives, 1% (w/v) solution compositions in vehicle WEP442, one at a time, were topically applied to the fingers and wrists of both hands. […] Efficacy was rated by the subject as 4+. • (B) N-Ac-Tyr-Pro-Phe-Phe-NHNH2 (SEQ ID NO: 31) provided slow relief of pain, i.e. within about 10 minutes. […] Analgesic efficacy was judged by the subject to be 0 to 1+.

[7] = 0.8% (w/v) in WEP442, left knee
[8] = 0.8% (w/v) in WEP442, lower lumbar
[9] = 0.8% (w/v) in WEP442, right upper tibia

## CC(=O)Nc1ccc(O)cc1 [acetaminophen, reference compound]
[1]
  pain relief: slight relief of pain

## N-Ac-Tyr-Pro-Phe-Phe-NHCH2CH2CH3 (Ac-YPFF-NHPr; SMILES CCCNC(=O)[C@H](Cc1ccccc1)NC(=O)[C@H](Cc1ccccc1)NC(=O)[C@@H]1CCCN1C(=O)[C@H](Cc1ccc(O)cc1)NC(C)=O)
[2]; 1% (w/v) in WEP442, topical
  analgesic efficacy rated by the subject: 75%
  duration of pain relief: less than 6 hours
  time to pain relief: more than 5 minutes
[2]
  pain relief: slower relief of pain

## N-Ac-Tyr-Pro-Phe-Phe-NHNHAc (Ac-YPFF-NHNHAc; SMILES CC(=O)NNC(=O)[C@H](Cc1ccccc1)NC(=O)[C@H](Cc1ccccc1)NC(=O)[C@@H]1CCCN1C(=O)[C@H](Cc1ccc(O)cc1)NC(C)=O)
[3]
  degree of analgesic effect: 4+
  duration of pain relief: 8 to 24 h
  pain relief at the treated sites: complete relief of pain
  time to pain relief: 1 to 2 min
[4]
  duration of pain relief: about 5 hours
  pain relief: substantial relief of pain
  time to pain relief: 2 to 3 min
[5]
  degree of analgesic effectiveness: 4+
  duration of pain relief: about 7 hours
  pain relief: complete relief of pain
  time to pain relief: ≤ 2 min

## N-Ac-Tyr-Pro-Phe-Phe-NHOH (Ac-YPFF-{NHOH}; SMILES CC(=O)N[C@@H](Cc1ccc(O)cc1)C(=O)N1CCC[C@H]1C(=O)N[C@@H](Cc1ccccc1)C(=O)N[C@@H](Cc1ccccc1)C(=O)NO)
[3]; 0.8% (w/v) in WEP442, lower back
  duration of relief of lower back pain: 20 to 24 h
[3]
  degree of analgesic effect: 4+
  duration of pain relief: ≥ 12 h
  pain relief at the treated sites: complete relief of pain
  time to pain relief: ≤ 1 min
[4]
  duration of pain relief: about 5 hours
  pain relief: very good relief of pain
  time to pain relief: 3 to 4 min
[5]
  duration of pain relief: about 2 hours
  pain relief: complete relief of pain
  time to pain relief: 1 to 2 min

## N-Bz-Tyr-Pro-Phe-Phe-NH2 ({Bz′}-YPFF-NH2)
[3]; 0.8% (w/v) in WEP442, left hip
  degree of analgesic effect, left hip: 4+
  duration of pain relief, left hip: about 12 hours
  pain relief, left hip: complete
[3]; [7]
  duration of pain relief, left knee: about 3 hours
[3]; [8]
  degree of analgesic effect, lower lumbar pain: 4+
  duration of pain relief, lower lumbar pain: about 4 hours
  pain relief, lower lumbar pain: responded completely
[3]
  duration of pain relief, right upper tibia: about 12 hours
  time to pain relief: 2 to 4 min
[3]; [9]
  degree of analgesic effect, right upper tibia: 4+
  pain relief, right upper tibia: complete
[4]
  duration of pain relief: about 4 hours
[5]
  duration of pain relief: about 10 hours
  pain relief: incomplete, but substantial relief of pain
  time to pain relief: 4 to 5 min

## N-Bz-Tyr-Pro-Phe-Phe-NHOH ({Bz′}-YPFF-{NHOH})
[2]; 1% (w/v) in WEP442, topical
  analgesic efficacy rated by the subject: 90%
  duration of pain relief: about 10 hours
[2]
  pain relief: rapid complete relief of pain

## N-Fo-Tyr-Pro-Phe-Phe-NH2 (For-YPFF-NH2; SMILES NC(=O)[C@H](Cc1ccccc1)NC(=O)[C@H](Cc1ccccc1)NC(=O)[C@@H]1CCCN1C(=O)[C@H](Cc1ccc(O)cc1)NC=O)
[3]; 0.8% (w/v) in WEP442, left hip
  time to pain relief, left hip: about 5 minutes
[3]; [7]
  pain relief, left knee: No relief of pain
[3]
  duration of pain relief, right upper tibia: 12 h
[3]; [9]
  pain relief, right upper tibia: complete
  time to pain relief, right upper tibia: about 4 minutes
[4]
  duration of pain relief: about 4 hours
[5]
  duration of pain relief: 2 to 3 h
  pain relief: only minimal relief of pain
  time to pain relief: 5 to 6 min

## N-Pg-Tyr-Pro-Trp-Phe-NH2 [reference compound]
[6]
  pain relief: slow, minimal relief of pain
